From patent US10307371B2 (AI Therapeutics, Inc., priority 2014, dated 2019)
Values joined by “and” are separate entries in the source; they are usually repeats but may differ in a detail not shown here. Identical values can stand only once. “Also recorded” adds a separate entry of the source.

Experiments:
[1] = human, cited from earlier work
[2] = Concentration of rapamycin in blood and lung after oropharyngeal aspiration (OPA) or oral gavage, LC-MS/MS; assay type: in vivo, C57BL/6 mice; details: 1 mg/kg
Method: Each animal was weighed prior to dosing to determine the amount of dose to be administered. A single gavage dose was administered using a 100-μL glass syringe (Hamilton, Reno, Nev.) fitted with a ball-tipped 20-G stainless steel gavage dosing needle (Popper & Sons Inc., New Hyde Park, N.Y.). The dose administered to each animal was determined from the weight of the full syringe minus that of the empty syringe. The dosing time was recorded. Dosing of animals was spaced apart to allow blood collection at the appropriate times. The dose formulations administered to each group are shown below.
Each mouse was anesthetized with isoflurane, and restrained with the mouth open. The tongue was held to one side of the mouth with forceps, and the dose was slowly injected into the distal part of the oral cavity. The nostrils were covered with a finger for two breaths to ensure aspiration (Rao et al., 2003).
Collection of Blood and Lung Samples: At study termination (1 or 72 h after dosing), mice were anesthetized by exposure to CO2, and blood was collected by cardiac puncture with dipotassium EDTA as anticoagulant. Lung tissue was excised and divided into the right and left lung. The left lung was used for analysis, and the right lung flash frozen in liquid nitrogen and stored at −70° C. for further analysis.
Triamcinolone was used as internal standard.
Lung homogenate was prepared by homogenization of weighed lung samples with 2.8-mm ball bearings in a homogenizer with tissue+deionized water (1:3 w/v) in a SPEX SamplePrep 2010 Geno/Grinder.
The concentrations of standards were arranged so that each standard came from an alternate stock standard. A six-point calibration curve, each made in triplicate, was employed for analyte quantitation. A simple linear regression model with or without weighting was employed for curve fitting. The concentration range determined was from 1-2000 ng/mL in blood and 2-2000 ng/mL in lung homogenate.
Thirty (30) μL of matrix, 30 μL of spiking solution (methanol for blanks and samples), 10 μL Internal standard solution (in MeOH) and 90 μL of MeOH were pipetted into microcentrifuge tubes, vortexed briefly, then centrifuged for 6 min at 10,000 RPM at ˜4° C. Aliquots (90 μL) of supernatant were transferred to LC vial inserts, and then analyzed by LC-MS/MS (Table 2).

renal angiomyolipomas = details: oral, 16 patients, cited from earlier work
[3] = study of 10 LAM patients; cited from earlier work
mTOR = experiment: S6 phosphorylation in mouse lung as biomarker for mTOR activity; details: lung tissue
Excerpt: To validate this approach, we used the presence of phosphorylated S6 protein in murine lung tissue as a biomarker for mTOR activity.

[4] = Particle size distribution by laser diffraction after jet milling or wet polishing; assay type: physicochemical
Method: For jet milling, a lab scale MCOne unit from Jetpharma was used with the following operating conditions: venturi pressure 2-4 bar, milling pressure 3-5 bar, feed rate 90 g/h. For wet polishing, feed suspensions were prepared using purified water. A microfluidics high pressure homogenizer was used for the size reduction step and the resulting suspension was spray-dried. Details of the wet polishing process are set forth below.
The high pressure homogenizer used for the size reduction step of the wet polishing process was a pilot-scale Microfluidics High Pressure Homogenizer equipped with an auxiliary processing module (200 micron) and a 100 micron interaction chamber was used. The unit was operated at ˜455 bar (˜30 bar in the intensifier module hydraulic pressure). After microfluidization the fluid was removed by spray drying to generate a dry powder. A laboratory scale spray dryer, SD45 (BÜCHI, model B-290 Advanced) was equipped with a two fluid nozzle (cap and diameter were 1.4 and 0.7 mm, respectively). Two cyclones in series were used (being the first the standard Buchi cyclone and the second the high-performance Buchi cyclone) to collect the dried product. The spray drying unit was operated with nitrogen and in single pass mode, i.e. without recirculation of the drying nitrogen. The aspirator, blowing nitrogen, was set at 100% of its capacity (flow rate at maximum capacity is approximately 40 kg/h). The flow rate of the atomization nitrogen was adjusted to a value in the rotameter of 40±5 mm. Before feeding the product suspension, the spray dryer was stabilized with purified water, during which the flow rate was adjusted to 6 ml/min (20% in the peristaltic pump). The inlet temperature was adjusted to achieve the target outlet temperature (45° C.). After stabilization of the temperatures, the feed of the spray dryer was commuted from purified water to the product suspension (keeping the same flow rate used during stabilization) and the inlet temperature once again adjusted in order to achieve the target outlet temperature. At the end of the stock suspension, the feed was once more commuted to purified water in order to rinse the feed line and perform a controlled shut down. The dry product in the collection flasks under both cyclones was weighed and the yield calculated as the mass percentage of the dry product in relation to the total solids in the suspension fed to the high pressure homogenizer.
Particle size distribution was analyzed by laser diffraction. Solid state characterization (for polymorphic form and purity) was performed by high pressure liquid chromatography (HPLC), X-ray powder diffraction (XRPD), and differential scanning calorimetry (mDSC). Water content was determined by the Karl Fischer method.

[5] = oral, 12 months, cited from earlier work
[6] = Observation for adverse effects / clinical signs after OPA or gavage dosing
Method: An additional group of 6 mice received vehicle only (10% ethanol in water). […] At the 72-h necropsy, blood was obtained by cardiac puncture and the lungs removed.
The weight of dose solution administered was determined by weighing the charged syringe with dose solution prior to dosing, and weighing following dosing. […] The time of dosing was recorded as 0. Animals in groups 2 and 3 were euthanized at 1 h after dosing.

angiomyolipomas = details: oral, 20 patients, cited from earlier work
[7] = cited from earlier work
[8] = cancer patients administered temsirolimus or everolimus; cited from earlier work
[9] = Gavage (Rapamune Oral), 1 h post-dose, individual animals
[10] = OPA, 1 h post-dose, individual animals
[11] = OPA, 72 h post-dose, individual animals

## CO[C@H]1C[C@@H]2CC[C@@H](C)[C@@](O)(O2)C(=O)C(=O)N2CCCC[C@H]2C(=O)O[C@H]([C@H](C)C[C@@H]2CC[C@@H](O)[C@H](OC)C2)CC(=O)[C@H](C)/C=C(\C)[C@@H](O)[C@@H](OC)C(=O)[C@H](C)C[C@H](C)/C=C/C=C/C=C/1C [Rapamycin, (3S,6R,7E,9R,10R,12R,14S,15E,17E,19E,21S,23S,26R,27R,34aS)-9,10,12,13, -14,21,22,23,24,25,26,27,32,33,34,34a-hexadecahydro-9,27-dihydroxy-3-[(1R)-2-[(1S,3R,4R)-4-hydroxy-3-methoxycyclohexyl]-1-methylethyl]-10,21-dimethox-y-6,8,12,14,20,26-hexamethyl-23,27-epoxy-3H-pyrido[2,1-c][1,4]oxaazacyclohentriacontine-1,5,11,28,29(4H,6H,31H)-pentone]
[1]; Rapamune NDA 21-110 and 21-083
  Volume of distribution: 780 L
[1]; assuming equivalency to rapamycin IV dosing
  Elimination half-life: 42.3 h
[2]; [9]
  Blood: 49.85 ng/mL and 11.3 ng/mL and 28.7 ng/mL and 28.35 ng/mL and 2.845 ng/mL and 19.35 ng/mL
  Lung (ng/g tissue): 109.8 ng/g tissue and 24.66 ng/g tissue and 122.8 ng/g tissue and 54 ng/g tissue and <LOQ and 43 ng/g tissue
[2]; [10]
  Blood: 622 ng/mL and 364.5 ng/mL and 937 ng/mL and 848.5 ng/mL and 615.5 ng/mL and 455.5 ng/mL
  Lung (ng/g tissue): 4500 ng/g tissue and 1874 ng/g tissue and 4006 ng/g tissue and 4700 ng/g tissue and 5040 ng/g tissue and 2642 ng/g tissue
[2]; OPA, 72 h post-dose
  Rapamycin in blood, group statement: below the limit of quantitation; also recorded: undetectable
[2]; [11]
  Blood (ng/ml): <ELOQ
  Lung (ng/g tissue): 11.4 ng/g tissue and 15.7 ng/g tissue and 10.8 ng/g tissue and 11.9 ng/g tissue and 13.6 ng/g tissue
[2]; oral (gavage), 72 hrs
  Rapamycin in blood: undetectable
  Rapamycin in lung: undetectable
Renal angiomyolipomas; up to 2 years
  Renal angiomyolipoma response: sustained regression of renal angiomyolipomas
  Steady state blood levels: 3 to 10 ng/mL
Renal angiomyolipomas
  Adverse events: oral mucositis, respiratory infections, and proteinuria
[3]
  Patients discontinued because of serious recurrent lower respiratory tract infection or sirolimus-induced pneumonitis: 3 patients
mTOR
  Drug level in the lung that substantially abrogates mTOR signaling (pS6): about 70 ng/g
[4]; jet milling
  PSD Dv10: 1.5 μm and 1.51 μm
  PSD Dv50: 2.7 μm and 2.74 μm
  PSD Dv90: 4.9 μm and 4.91 μm
[4]; wet polishing
  PSD Dv10: 1.0 μm and 1.05 μm
  PSD Dv50: 2.4 μm and 2.42 μm
  PSD Dv90: 5.0 μm and 4.97 μm
[5]; blood levels 5-15 ng/ml
  Lung function: stabilized lung function
  Serum VEGF-D levels: reduced serum VEGF-D levels
[5]
  Blood levels at which patients were maintained: 5 to 15 ng/mL
[6]; OPA or gavage, 1 mg/kg, up to 72 h after dosing, all groups
  Clinical signs: No significant clinical signs were observed
[6]; OPA, 1 mg/kg, 72 h period following dosing
  Adverse effects: No adverse effects were observed
[6]; relatively high amounts delivered directly to lung (OPA, 1 mg/kg)
  Acute toxicity to lung tissue: not acutely toxic to lung tissue
angiomyolipomas; 24 months
  Serious adverse events: diarrhea, pneumonia, pyelonephritis, cellulitis (from an animal bite), stomatitis, and hemorrhage of a renal angiomyolipoma
angiomyolipomas; during the treatment period
  Angiomyolipoma response: regressed “somewhat”
[7]
  Chemical stability of the amorphous form: extremely chemically unstable

## CO[C@H]1C[C@@H]2CC[C@@H](C)[C@@](O)(O2)C(=O)C(=O)N2CCCC[C@H]2C(=O)O[C@H]([C@H](C)C[C@@H]2CC[C@@H](OCCO)[C@H](OC)C2)CC(=O)[C@H](C)/C=C(\C)[C@@H](O)[C@@H](OC)C(=O)[C@H](C)C[C@H](C)/C=C/C=C/C=C/1C [everolimus]
[8]
  Cancer patients who may experience mild grade pulmonary toxicity: 10%

## CO[C@H]1C[C@@H]2CC[C@@H](C)[C@@](O)(O2)C(=O)C(=O)N2CCCC[C@H]2C(=O)O[C@H]([C@H](C)C[C@@H]2CC[C@@H](OC(=O)C(C)(CO)CO)[C@H](OC)C2)CC(=O)[C@H](C)/C=C(\C)[C@@H](O)[C@@H](OC)C(=O)[C@H](C)C[C@H](C)/C=C/C=C/C=C/1C [temsirolimus]
[8]
  Cancer patients who may experience mild grade pulmonary toxicity: 10%
